Data from ChEMBL document CHEMBL3751718, “Synthesis and biological evaluation of lipid-like 5-(2-hydroxyethyl)-4-methyl-1,3-thiazole derivatives as potential anticancer and antimicrobial agents” (Medchemcomm, 2015).
Values after ≈ are worked out from the molar mass of the structure shown. Active and inactive are the calls of the source. The rule behind the calls is not given here.

Tests used:
Escherichia coli [1] = assay: Bactericidal activity against Escherichia coli MSCL 332 incubated for 24 hrs followed by colony transfer to agar plates for 24 hrs by colony counting based assay; type: functional; details: MSCL 332, 24 h, read-out: MBC99.9
Candida albicans [2] = assay: Antifungal activity against Candida albicans MSCL 378 at 5 mg/ml after 48 hrs by agar dish diffusion method; type: functional; details: for zone of inhibition at 5000 µg/mL: MSCL 378, 48 h, read-out: DIZ
Bacillus cereus [3] = assay: Antibacterial activity against Bacillus cereus MSCL 330 at 5 mg/ml after 24 hrs by agar dish diffusion method; type: functional; details: for zone of inhibition at 5000 µg/mL: MSCL 330, 24 h, read-out: DIZ
Staphylococcus aureus [4] = assay: Bactericidal activity against Staphylococcus aureus MSCL 334 incubated for 24 hrs followed by colony transfer to agar plates for 24 hrs by colony counting based assay; type: functional; details: MSCL 334, 24 h, read-out: MBC99.9
[5] = Cytotoxicity against human HT1080 cells assessed as cell viability at 6.25 to 50 ug/ml by crystal violet-based assay; type: functional; details: HT-1080, read-out: LC50 (the source's name)
Pseudomonas aeruginosa [6] = assay: Antibacterial activity against Pseudomonas aeruginosa MSCL 331 at 5 mg/ml after 24 hrs by agar dish diffusion method; type: functional; details: for zone of inhibition at 5000 µg/mL: MSCL 331, 24 h, read-out: DIZ
Bacillus cereus [7] = assay: Bactericidal activity against Bacillus cereus MSCL 330 incubated for 24 hrs followed by colony transfer to agar plates for 24 hrs by colony counting based assay; type: functional; details: MSCL 330, 24 h, read-out: MBC99.9
MG-22A [8] = assay: Cytotoxicity against mouse MG-22A cells assessed as cell viability at 6.25 to 50 ug/ml after 72 hrs by MTT assay; type: functional; details: read-out: LC50 (the source's name)
MG-22A [9] = assay: Cytotoxicity against mouse MG-22A cells assessed as cell viability at 6.25 to 50 ug/ml by crystal violet-based assay; type: functional; details: read-out: LC50 (the source's name)
Aspergillus niger [10] = assay: Antifungal activity against Aspergillus niger MSCL 324 at 10 mg/ml after 48 hrs by agar dish diffusion method; type: functional; details: for zone of inhibition at 10000 µg/mL: MSCL 324, 48 h, read-out: DIZ
Proteus mirabilis [11] = assay: Antibacterial activity against Proteus mirabilis MSCL 590 at 10 mg/ml after 24 hrs by agar dish diffusion method; type: functional; details: for zone of inhibition at 10000 µg/mL: MSCL 590, 24 h, read-out: DIZ
Escherichia coli [12] = assay: Antibacterial activity against Escherichia coli MSCL 332 after 24 hrs by broth dilution method; type: functional; details: MSCL 332, 24 h
Aspergillus niger [13] = assay: Antifungal activity against Aspergillus niger MSCL 324 after 24 hrs by broth dilution method; type: functional; details: MSCL 324, 24 h
[14] = Cytotoxicity against mouse NIH/3T3 cells assessed as cell viability at 6.25 to 50 ug/ml by neutral red-based assay; details: nih3t3
Escherichia coli [15] = assay: Antibacterial activity against Escherichia coli MSCL 332 at 10 mg/ml after 24 hrs by agar dish diffusion method; type: functional; details: for zone of inhibition at 10000 µg/mL: MSCL 332, 24 h, read-out: DIZ
Aspergillus niger [16] = assay: Fungicidal activity against Aspergillus niger MSCL 324 incubated for 24 hrs followed by colony transfer to agar plates for 24 hrs by colony counting based assay; type: functional; details: MSCL 324, 24 h, read-out: MFC99.9
Bacillus cereus [17] = assay: Antibacterial activity against Bacillus cereus MSCL 330 at 10 mg/ml after 24 hrs by agar dish diffusion method; type: functional; details: for zone of inhibition at 10000 µg/mL: MSCL 330, 24 h, read-out: DIZ
MG-22A [18] = assay: Induction of nitric oxide production in mouse MG-22A cells by Griess assay; type: functional; parameters: concentration or dose not given beside the values
Aspergillus niger [19] = assay: Antifungal activity against Aspergillus niger MSCL 324 at 5 mg/ml after 48 hrs by agar dish diffusion method; type: functional; details: for zone of inhibition at 5000 µg/mL: MSCL 324, 48 h, read-out: DIZ
Staphylococcus aureus [20] = assay: Antibacterial activity against Staphylococcus aureus MSCL 334 at 10 mg/ml after 24 hrs by agar dish diffusion method; type: functional; details: for zone of inhibition at 10000 µg/mL: MSCL 334, 24 h, read-out: DIZ
Bacillus cereus [21] = assay: Antibacterial activity against Bacillus cereus MSCL 330 after 24 hrs by broth dilution method; type: functional; details: MSCL 330, 24 h
Proteus mirabilis [22] = assay: Antibacterial activity against Proteus mirabilis MSCL 590 at 5 mg/ml after 24 hrs by agar dish diffusion method; type: functional; details: for zone of inhibition at 5000 µg/mL: MSCL 590, 24 h, read-out: DIZ
Staphylococcus aureus [23] = assay: Antibacterial activity against Staphylococcus aureus MSCL 334 after 24 hrs by broth dilution method; type: functional; details: MSCL 334, 24 h
HT-1080 = assay: Induction of nitric oxide production in human HT1080 cells by Griess assay; type: functional; parameters: concentration or dose not given beside the values
Candida albicans [24] = assay: Antifungal activity against Candida albicans MSCL 378 after 24 hrs by broth dilution method; type: functional; details: MSCL 378, 24 h
Candida albicans [25] = assay: Antifungal activity against Candida albicans MSCL 378 at 10 mg/ml after 48 hrs by agar dish diffusion method; type: functional; details: for zone of inhibition at 10000 µg/mL: MSCL 378, 48 h, read-out: DIZ
Staphylococcus aureus [26] = assay: Antibacterial activity against Staphylococcus aureus MSCL 334 at 5 mg/ml after 24 hrs by agar dish diffusion method; type: functional; details: for zone of inhibition at 5000 µg/mL: MSCL 334, 24 h, read-out: DIZ
Pseudomonas aeruginosa [27] = assay: Antibacterial activity against Pseudomonas aeruginosa MSCL 331 at 10 mg/ml after 24 hrs by agar dish diffusion method; type: functional; details: for zone of inhibition at 10000 µg/mL: MSCL 331, 24 h, read-out: DIZ
Escherichia coli [28] = assay: Antibacterial activity against Escherichia coli MSCL 332 at 5 mg/ml after 24 hrs by agar dish diffusion method; type: functional; details: for zone of inhibition at 5000 µg/mL: MSCL 332, 24 h, read-out: DIZ
[29] = Cytotoxicity against human HT1080 cells assessed as cell viability at 6.25 to 50 ug/ml after 72 hrs by MTT assay; type: functional; details: HT-1080, 72 h, read-out: LC50 (the source's name)
Candida albicans [30] = assay: Fungicidal activity against Candida albicans MSCL 378 incubated for 24 hrs followed by colony transfer to agar plates for 24 hrs by colony counting based assay; type: functional; details: MSCL 378, 24 h, read-out: MFC99.9

| Compound | MBC (Escherichia coli [1]) [µg/mL] | zone of inhibition at 5000 µg/mL (Candida albicans [2]) [mm] | zone of inhibition at 5000 µg/mL (Bacillus cereus [3]) [mm] | CC50 [5] [µM] | MBC (Bacillus cereus [7]) [µg/mL] | CC50 (MG-22A [8]) [µM] | CC50 (MG-22A [9]) [µM] | zone of inhibition at 10000 µg/mL (Aspergillus niger [10]) [mm] | MIC (Aspergillus niger [13]) [µg/mL] | LC50 [14] [µM] | MFC (Aspergillus niger [16]) [µg/mL] | zone of inhibition at 10000 µg/mL (Bacillus cereus [17]) [mm] | Activity (MG-22A [18]) [%] | zone of inhibition at 10000 µg/mL (Staphylococcus aureus [20]) [mm] | MIC (Bacillus cereus [21]) [µg/mL] | Activity (HT-1080) [%] | MIC (Candida albicans [24]) [µg/mL] | zone of inhibition at 10000 µg/mL (Candida albicans [25]) [mm] | CC50 [29] [µM] | MFC (Candida albicans [30]) [µg/mL] | also measured |
| --- | --- | --- | --- | --- | --- | --- | --- | --- | --- | --- | --- | --- | --- | --- | --- | --- | --- | --- | --- | --- | --- |
| CCCCCCCCCCOCCc1sc[n+](C)c1C.[I-] | 32 | 29 | 29 | 0.47 | 64 | 1.17 | 0.23 | 15 | 16 | 37.6 | 32 | 30 | 150 | 25 | 32 | 150 | 16 | 33 | 0.94 | 32 | MBC (Staphylococcus aureus [4]): 4 µg/mL; zone of inhibition at 5000 µg/mL (Pseudomonas aeruginosa [6]): 9 mm; zone of inhibition at 10000 µg/mL (Proteus mirabilis [11]): 20 mm; MIC (Escherichia coli [12]): 32 µg/mL; zone of inhibition at 10000 µg/mL (Escherichia coli [15]): 20 mm; zone of inhibition at 5000 µg/mL (Aspergillus niger [19]): 12 mm; zone of inhibition at 5000 µg/mL (Proteus mirabilis [22]): 17 mm; MIC (Staphylococcus aureus [23]): 2 µg/mL; zone of inhibition at 5000 µg/mL (Staphylococcus aureus [26]): 25 mm; zone of inhibition at 10000 µg/mL (Pseudomonas aeruginosa [27]): 15 mm; zone of inhibition at 5000 µg/mL (Escherichia coli [28]): 15 mm |
| CCCCCCCOCCc1sc[n+](C)c1C.[I-] | 256 | 13 | 12 | 15.6 | > 256 | 18.2 | 20.8 | 11 | > 256 | 467.3 | > 256 | 13 | 100 | 21 | > 256 | 200 | 256 | 20 | 15.6 | > 256 | MBC (Staphylococcus aureus [4]): 64 µg/mL; diameter of the inhibition zone (DIZ) (Pseudomonas aeruginosa [6]): inactive; diameter of the inhibition zone (DIZ) (Proteus mirabilis [11]): inactive; MIC (Escherichia coli [12]): 256 µg/mL; zone of inhibition at 10000 µg/mL (Escherichia coli [15]): 16 mm; diameter of the inhibition zone (DIZ) (Aspergillus niger [19]): inactive; diameter of the inhibition zone (DIZ) (Proteus mirabilis [22]): inactive; MIC (Staphylococcus aureus [23]): 16 µg/mL; zone of inhibition at 5000 µg/mL (Staphylococcus aureus [26]): 20 mm; diameter of the inhibition zone (DIZ) (Pseudomonas aeruginosa [27]): inactive; zone of inhibition at 5000 µg/mL (Escherichia coli [28]): 11 mm |
| GENTAMICIN |  |  |  |  |  |  |  |  |  |  |  |  |  |  |  |  |  |  |  |  | diameter of the inhibition zone (DIZ) (Candida albicans [2]): inactive; inhibition zone (IZ) (Bacillus cereus [3]): 35 mm; inhibition zone (IZ) (Pseudomonas aeruginosa [6]): 31 mm; diameter of the inhibition zone (DIZ) (Aspergillus niger [10]): inactive; inhibition zone (IZ) (Proteus mirabilis [11]): 31 mm; inhibition zone (IZ) (Escherichia coli [15]): 30 mm; inhibition zone (IZ) (Bacillus cereus [17]): 36 mm; diameter of the inhibition zone (DIZ) (Aspergillus niger [19]): inactive; inhibition zone (IZ) (Staphylococcus aureus [20]): 32 mm; inhibition zone (IZ) (Proteus mirabilis [22]): 28 mm; diameter of the inhibition zone (DIZ) (Candida albicans [25]): inactive; inhibition zone (IZ) (Staphylococcus aureus [26]): 30 mm; inhibition zone (IZ) (Pseudomonas aeruginosa [27]): 32 mm; inhibition zone (IZ) (Escherichia coli [28]): 27 mm |
| CCCCCCCCCCOCCc1scnc1C |  | 13 | 9 | 60 | > 256 | 45.9 | 38.8 | 11 | 32 (≈ 113 µM) | 84.8 | 64 (≈ 226 µM) | 10 | 200 | 10 | 2 (≈ 7.06 µM) | 400 | > 256 | 9 | 63.6 | > 256 | diameter of the inhibition zone (DIZ) (Pseudomonas aeruginosa [6]): inactive; diameter of the inhibition zone (DIZ) (Proteus mirabilis [11]): inactive; diameter of the inhibition zone (DIZ) (Escherichia coli [15]): inactive; zone of inhibition at 5000 µg/mL (Aspergillus niger [19]): 11 mm; diameter of the inhibition zone (DIZ) (Proteus mirabilis [22]): inactive; diameter of the inhibition zone (DIZ) (Staphylococcus aureus [26]): inactive; diameter of the inhibition zone (DIZ) (Pseudomonas aeruginosa [27]): inactive; diameter of the inhibition zone (DIZ) (Escherichia coli [28]): inactive |
| CCCCCCCCCC[n+]1csc(CCOCCCCCCC)c1C.[I-] | 64 | 20 | 20 | 3.93 | 32 | 1.96 | 0.19 | 19 | 16 | 19.6 | 16 | 21 | 350 | 22 | 8 | 250 | 16 | 21 | 3.93 | 16 | MBC (Staphylococcus aureus [4]): 4 µg/mL; zone of inhibition at 5000 µg/mL (Pseudomonas aeruginosa [6]): 16 mm; zone of inhibition at 10000 µg/mL (Proteus mirabilis [11]): 12 mm; MIC (Escherichia coli [12]): 32 µg/mL; zone of inhibition at 10000 µg/mL (Escherichia coli [15]): 20 mm; zone of inhibition at 5000 µg/mL (Aspergillus niger [19]): 17 mm; zone of inhibition at 5000 µg/mL (Proteus mirabilis [22]): 11 mm; MIC (Staphylococcus aureus [23]): 1 µg/mL; zone of inhibition at 5000 µg/mL (Staphylococcus aureus [26]): 21 mm; zone of inhibition at 10000 µg/mL (Pseudomonas aeruginosa [27]): 20 mm; zone of inhibition at 5000 µg/mL (Escherichia coli [28]): 15 mm |
